Reference: US20260297571A1, “METHODS FOR DECREASING NEURONAL DEATH, INFLAMMATION, AND DEGENERATION” (The Johns Hopkins University, priority 2023, published 2026)

How the values were obtained:
[1] = tested on: poly-GR expressing neurons; test: Cell survival assay, GR50 expressing i^3Neurons; assay type: cell-based, human
Procedure: (§1) Cell survival assay. I'Neurons were infected with lentivirus to transduce GR50, PR50, BFP or GFP expression in the cells on day 5, day 7, day 9 or day 11 depending on the experimental timeline. For inducible DPRs, the virus was added to neurons on differentiation day 6. The expression was initiated by adding Dox to the differentiation medium (induction day 1). To validate the effect of the drugs on neuron survival, DPR was transduced for 7 days. i^3Neurons were treated with 5 μM ASOs for 7 days or 2.5 μM ISP (Sigma, Cat. No. 5343390001) or 3.7 μM DJ001 (Sigma, Cat. No. SML2787) for 3 days before harvesting. To examine the effect of the drugs on other cellular phenotypes, DPR was transduced for 3 days. 2.5 μM ISP or 3.7 μM DJ001 was added to the culture medium on the same day, followed by FYVE reporter transduction 1 day later.
(§2) To measure cell survival, bright-field images were captured on day 14 using a Nikon TS-2 microscope. At least 4 images were taken at 10× object for each replica. At least 2 replicas were included for each batch. All experiments were performed at least twice. To examine dead neurons, PI (Thermo Fisher, Cat. No. P1304MP) dye was added to the culture medium 30 min before harvesting. Images of bright field and Cy3 channel were acquired, followed by quantifying the surviving neurons and PI^+ signals blindly.

[2] = tested on: poly-PR expressing neurons; test: Cell survival assay, PR50 expressing i^3Neurons; assay type: cell-based, human
Procedure: as §1, §2

PIKFYVE = conditions: YM-201636; cited from earlier work
[3] = tested on: poly-GR expressing neurons (EEA1^+ early endosome); test: EEA1 immunofluorescence staining in i^3Neurons; assay type: cell-based, human; conditions: DJ001 3.7 μM; 3-days GR50 i^3Neurons
Description: During early endosome formation, Rab5 recruits EEA1 to the early endosomal membrane via local PI3P, thus EEA1 expression is considered a secondary indicator of PI3P level. […] EEA1^+ endosome formation was increased upon knocking down PTPσ in poly-GR expressing neurons (FIGS. 2C-2D).
Cell survival assay. I'Neurons were infected with lentivirus to transduce GR50, PR50, BFP or GFP expression in the cells on day 5, day 7, day 9 or day 11 depending on the experimental timeline. For inducible DPRs, the virus was added to neurons on differentiation day 6. The expression was initiated by adding Dox to the differentiation medium (induction day 1). […]
Confocal microscopy and image quantification. […] For GFP-2×FYVE florescence intensity quantification, at least 6 images were taken for each replica with more than 30 neurons. […] The fluorescence intensity of the region of interest was measured and then minus the background intensity. For the quantification of EEA1^+ and LAMP1^+ puncta, EEA1 or LAMP1 channel was merged with MAP2. The puncta within MAP2 region were counted and compared among groups. For the quantification in mouse brains, at least 6 serial sections were imaged to quantify the number of neurons, astrocyte, and microglia in mouse brains. For glutamate-induced neurotoxicity assays, 5 images of PI staining will be taken at 20× for each well to quantify dead neurons. […]

PTPσ = conditions: DJ001; cited from earlier work
hematopoietic stem cell = conditions: in vitro and in the mouse model; cited from earlier work
C9-iPSNs = test: Glutamate-induced excitotoxicity assay in C9 iPSNs/iMNs; assay type: cell-based, human; conditions: 10 μM glutamate
Procedure: Glutamate toxicity contributes to the disease onset/progression in ALS due to the loss of glutamate transporter 1 (EAAT2). […] To evaluate the effect of PTPσ knockdown to the physiology of C9-iPSNs, glutamate-induced excitotoxicity assays were performed and the percentage of cell death (PI^+) was quantified after the treatment with or without PTPσ knockdown. […] Taken together, the evidence supports PTPσ knockdown as beneficial for homeostasis of endo-lysosomal system, neuronal function, and survival in the C9-iPSNs.
C9 patient iPSNs differentiation (iMNs differentiation). […]
Glutamate-induced excitotoxicity assay. […] Five pairs of age and gender-matched control and C9ORF72-ALS iPSNs were analyzed.
Confocal microscopy and image quantification. […] For GFP-2×FYVE florescence intensity quantification, at least 6 images were taken for each replica with more than 30 neurons. […] The fluorescence intensity of the region of interest was measured and then minus the background intensity. For the quantification of EEA1^+ and LAMP1^+ puncta, EEA1 or LAMP1 channel was merged with MAP2. The puncta within MAP2 region were counted and compared among groups. For the quantification in mouse brains, at least 6 serial sections were imaged to quantify the number of neurons, astrocyte, and microglia in mouse brains. […] At least 500 cells from each biological replicate will be counted for statistical comparison.

## CC(C)(O)CNc1ncc(-c2ccnc(Nc3ccnc(Cl)c3)n2)c(CC2CC2)n1 [VPS34-IN1]
[1]; VPS34-IN1 0.5 μM, 2 days, PTPσ knockdown GR50 i^3Neurons
  rescue effect of PTPσ knockdown on GR50 neuron survival: completely diminished
[2]; VPS34 inhibitor, PTPσ knockdown PR50 neurons
  rescue by PTPσ knockdown, PR50 neurons: abolished

## Nc1ccc(C(=O)Nc2cccc(-c3nc(N4CCOCC4)c4oc5ncccc5c4n3)c2)cn1 [YM-201636]
[1]; YM-201636 0.5 μM, GR50 i^3Neurons
  rescue effect in poly-GR expressing neurons (survival): robust rescue effect
PIKFYVE
  PI3P levels via inhibition of PI3P to PI(3,5)P2 conversion: can boost PI3P levels

## O=C(/C=C\Nc1cccc([N+](=O)[O-])c1)c1ccccc1 [DJ001, (Z)-3-((3-nitrophenyl)amino)-1-phenylprop-2-en-1-one]
[3]
  formation of EEA1^+ early endosome: significantly increased
[1]; DJ001 3.7 μM, GR50 i^3Neurons
  poly-GR expressing neuron survival: improves
[2]; DJ001, PR50 i^3Neurons
  poly-PR expressing neuron survival: improves
PTPσ
  specificity of PTPσ inhibition: highly specific inhibitor
Hematopoietic stem cell
  hematopoietic stem cell regeneration: can promote hematopoietic stem cell regeneration

## N[C@@H](CCC(=O)O)C(=O)O [glutamate]
C9-iPSNs
  PI^+ dead cells in control shRNA C9-iPSNs: increased
